Assay results as given in ChEMBL document CHEMBL2092589, “Liver-stage malaria parasites vulnerable to diverse chemical scaffolds” (Proc Natl Acad Sci U S A, 2012).
Counter-ions that a name gives are not always drawn.

Experiments:
Plasmodium berghei = experiment: HARVARD: Inhibition of liver stage Plasmodium berghei infection in HepG2 cells; assay type: functional, organism-based, ANKA
[1] = (§1) HARVARD: Cytotoxicity in HepG2 cell line; details: human
Plasmodium falciparum [2] = experiment: HARVARD: Inhibition of blood stage Plasmodium falciparum Dd2 infection; assay type: functional, organism-based
Plasmodium falciparum [3] = experiment: HARVARD: Inhibition of blood stage Plasmodium falciparum 3D7 infection; assay type: functional, organism-based
HepG2 = experiment: as §1; details: human, HepG2 cells
[4] = Plasmodium berghei, ANKA, HepG2

Nc1nc(Nc2ccc(S(N)(=O)=O)cc2)nn1C(=S)Nc1c(F)cccc1F
IC50 (Plasmodium berghei; [4]): 0.472 µM
IC50 ([1]; HepG2 cells): > 50 µM
IC50 (Plasmodium falciparum [2]; Plasmodium falciparum, Dd2): 0.258 µM

CC(=O)[C@]1(O)Cc2c(O)c3c(c(O)c2[C@@H](O[C@H]2C[C@H](N)[C@H](O)[C@H](C)O2)C1)C(=O)c1ccccc1C3=O [IDARUBICIN]
IC50 (Plasmodium berghei; [4]): 6.62 µM
IC50 ([1]; HepG2 cells): 12.3 µM
IC50 (Plasmodium falciparum [2]; Plasmodium falciparum, Dd2): > 5 µM
IC50 (Plasmodium falciparum [3]; Plasmodium falciparum, 3D7): > 5 µM

Cc1cc(C2CCCCC2)n(O)c(=O)c1 [CICLOPIROX OLAMINE]
IC50 (Plasmodium berghei; [4]): 1.05 µM
IC50 ([1]; HepG2 cells): > 100 µM

COc1cccc2c1C(=O)c1c(O)c3c(c(O)c1C2=O)C[C@@](O)(C(C)=O)C[C@@H]3O[C@H]1C[C@H](N)[C@H](O)[C@H](C)O1 [DAUNORUBICIN]
IC50 (Plasmodium berghei; [4]): 2.99 µM
IC50 ([1]; HepG2 cells): 9.12 µM
IC50 (Plasmodium falciparum [2]; Plasmodium falciparum, Dd2): 0.155 µM
IC50 (Plasmodium falciparum [3]; Plasmodium falciparum, 3D7): 0.34 µM

CO[C@H](C(=O)[C@@H](O)[C@@H](C)O)[C@@H]1Cc2cc3cc(O[C@H]4C[C@@H](O[C@@H]5C[C@@H](O)[C@H](O)[C@@H](C)O5)[C@H](O)[C@@H](C)O4)c(C)c(O)c3c(O)c2C(=O)[C@H]1O[C@H]1C[C@@H](O[C@@H]2C[C@@H](O)[C@@H](O[C@@H]3C[C@](C)(O)[C@H](O)[C@@H](C)O3)[C@@H](C)O2)[C@H](O)[C@@H](C)O1 [PLICAMYCIN]
IC50 (Plasmodium berghei; [4]): 0.833 µM
IC50 (Plasmodium falciparum [2]; Plasmodium falciparum, Dd2): 0.0125 µM
IC50 (Plasmodium falciparum [3]; Plasmodium falciparum, 3D7): 0.015 µM

Nc1ccc2ncnc(NCCc3ccc(Oc4ccccc4)cc3)c2c1
IC50 (Plasmodium berghei; [4]): 0.012 µM
IC50 ([1]; HepG2 cells): 59 µM
IC50 (Plasmodium falciparum [2]; Plasmodium falciparum, Dd2): 1.17 µM

CC[C@@H](C(=O)[C@@H](C)[C@@H](O)[C@H](C)[C@@H]1O[C@@H]([C@@H](CC)C(=O)O)CC[C@@H]1C)[C@H]1O[C@]2(C=C[C@@H](O)[C@]3(CC[C@@](C)([C@H]4CC[C@](O)(CC)[C@H](C)O4)O3)O2)[C@H](C)C[C@@H]1C [SALINOMYCIN SODIUM]
IC50 (Plasmodium berghei; [4]): 0.002 µM
IC50 ([1]; HepG2 cells): 58 µM

CC[C@@]1([C@@H]2O[C@@H]([C@H]3O[C@@](O)(CO)[C@H](C)C[C@@H]3C)C[C@@H]2C)CC[C@H]([C@]2(C)CC[C@]3(C[C@H](O)[C@@H](C)[C@@H]([C@@H](C)[C@@H](OC)[C@H](C)C(=O)O)O3)O2)O1 [MONENSIN SODIUM]
IC50 ([1]; HepG2 cells): > 100 µM

COc1cc(NC(C)CCCN)c2ncccc2c1 (configuration not stated) [PRIMAQUINE PHOSPHATE]
IC50 (Plasmodium berghei; [4]): 7.4 µM
IC50 ([1]; HepG2 cells): > 100 µM
IC50 (Plasmodium falciparum [2]; Plasmodium falciparum, Dd2): 0.794 µM

CC(C)=CC[C@@H](O)C1=CC(=O)c2c(O)ccc(O)c2C1=O [SHIKONIN]
IC50 (Plasmodium berghei; [4]): 1.37 µM
IC50 ([1]; HepG2 cells): 28.1 µM
IC50 (Plasmodium falciparum [2]; Plasmodium falciparum, Dd2): > 5 µM
IC50 (Plasmodium falciparum [3]; Plasmodium falciparum, 3D7): > 5 µM

CC[C@@H](C(=O)[C@@H](C)[C@@H](O)[C@H](C)CCc1ccc(C)c(O)c1C(=O)O)[C@H]1O[C@](CC)([C@H]2CC[C@](O)(CC)[C@H](C)O2)C[C@@H]1C [LASALOCID A SODIUM]
IC50 (Plasmodium berghei; [4]): 0.011 µM
IC50 ([1]; HepG2 cells): > 100 µM

COc1ccc2[nH]c([S+]([O-])Cc3ncc(C)c(OC)c3C)nc2n1 (configuration not stated) [TENATOPRAZOLE]
IC50 (Plasmodium berghei; [4]): 0.224 µM
IC50 ([1]; HepG2 cells): > 10 µM
IC50 (Plasmodium falciparum [2]; Plasmodium falciparum, Dd2): > 5 µM
IC50 (Plasmodium falciparum [3]; Plasmodium falciparum, 3D7): > 5 µM

COc1ccc2[nH]c([S+]([O-])Cc3ncc(C)c(OC)c3C)nc2c1 (configuration not stated) [OMEPRAZOLE]
IC50 (Plasmodium berghei; [4]): 0.68 µM
IC50 ([1]; HepG2 cells): > 10 µM
IC50 (Plasmodium falciparum [2]; Plasmodium falciparum, Dd2): > 50 µM
IC50 (Plasmodium falciparum [3]; Plasmodium falciparum, 3D7): > 50 µM

CCCc1nc2c(C)cc(-c3nc4ccccc4n3C)cc2n1Cc1ccc(-c2ccccc2C(=O)O)cc1
IC50 (Plasmodium berghei; [4]): 0.025 µM
IC50 ([1]; HepG2 cells): > 10 µM
IC50 (Plasmodium falciparum [2]; Plasmodium falciparum, Dd2): > 5 µM
IC50 (Plasmodium falciparum [3]; Plasmodium falciparum, 3D7): > 5 µM

COc1ccc(CCN2CCC(Nc3nc4ccccc4n3Cc3ccc(F)cc3)CC2)cc1 [ASTEMIZOLE]
IC50 ([1]; HepG2 cells): 12 µM

CCCCCCCCCc1ccc(OCCOCCOCCOCCOCCOCCOCCOCCOCCO)cc1 [NONOXYNOL 9]
IC50 (Plasmodium berghei; [4]): 2.31 µM
IC50 ([1]; HepG2 cells): 61 µM
IC50 (Plasmodium falciparum [2]; Plasmodium falciparum, Dd2): > 5 µM

C/C=C/C[C@@H](C)[C@@H](O)[C@H]1C(=O)N[C@@H](CC)C(=O)N(C)CC(=O)N(C)[C@@H](CC(C)C)C(=O)N[C@@H](C(C)C)C(=O)N(C)[C@@H](CC(C)C)C(=O)N[C@@H](C)C(=O)N[C@H](C)C(=O)N(C)[C@@H](CC(C)C)C(=O)N(C)[C@@H](CC(C)C)C(=O)N(C)[C@@H](C(C)C)C(=O)N1C [CYCLOSPORINE]
IC50 (Plasmodium berghei; [4]): 0.00165 µM
IC50 (Plasmodium falciparum [3]; Plasmodium falciparum, 3D7): 0.138 µM

AURANOFIN
IC50 (Plasmodium berghei; hepg2): 0.108 µM
IC50 (HepG2): 5.6 µM
IC50 (Plasmodium falciparum [2]): 0.316 µM
IC50 (Plasmodium falciparum [3]): 0.343 µM

C[C@@H]1C[C@@H]([C@H](O)CC2CC(=O)NC(=O)C2)C(=O)[C@@H](C)C1 [CYCLOHEXIMIDE]
IC50 (Plasmodium berghei; [4]): 0.047 µM
IC50 ([1]; HepG2 cells): > 100 µM

CCN(CC)CCOc1ccc(C(=C(Cl)c2ccccc2)c2ccccc2)cc1 [CLOMIPHENE]
IC50 (Plasmodium berghei; [4]): 0.219 µM
IC50 ([1]; HepG2 cells): 11 µM

CN1CCC[C@@H]1CCO[C@](C)(c1ccccc1)c1ccc(Cl)cc1 [CLEMASTINE FUMARATE]
IC50 (Plasmodium berghei; [4]): 0.951 µM
IC50 ([1]; hepg2): > 50 µM
IC50 (Plasmodium falciparum [2]; Plasmodium falciparum, Dd2): 0.456 µM
IC50 (Plasmodium falciparum [3]; Plasmodium falciparum, 3D7): 0.658 µM

CCc1nc(N)nc(N)c1-c1ccc(Cl)cc1 [PYRIMETHAMINE]
IC50 (Plasmodium berghei; [4]): 0.0047 µM
IC50 ([1]; HepG2 cells): > 10 µM

COc1ccc2nc([S@@+]([O-])Cc3ncc(C)c(OC)c3C)[nH]c2c1 [ESOMEPRAZOLE POTASSIUM]
IC50 (Plasmodium berghei; [4]): 0.291 µM
IC50 ([1]; HepG2 cells): > 10 µM
IC50 (Plasmodium falciparum [2]; Plasmodium falciparum, Dd2): > 50 µM
IC50 (Plasmodium falciparum [3]; Plasmodium falciparum, 3D7): > 50 µM

CO[C@H](C(=O)[C@@H](O)[C@@H](C)O)[C@@H]1Cc2cc3cc(O[C@H]4C[C@@H](O[C@H]5C[C@@H](O)[C@H](O)[C@@H](C)O5)[C@H](O)[C@@H](C)O4)c(C)c(O)c3c(O)c2C(=O)[C@H]1O[C@H]1C[C@@H](O[C@H]2C[C@@H](O[C@H]3C[C@](C)(O)[C@H](O)[C@@H](C)O3)[C@@H](O)[C@@H](C)O2)[C@H](O)[C@@H](C)O1 [PLICAMYCIN]
IC50 ([1]; HepG2 cells): > 10 µM

CCCOc1ccccc1-c1nc2nn[nH]c2c(=O)[nH]1 [ZAPRINAST]
IC50 (Plasmodium berghei; [4]): 7.79 µM
IC50 ([1]; HepG2 cells): > 10 µM
IC50 (Plasmodium falciparum [2]; Plasmodium falciparum, Dd2): 19.3 µM
IC50 (Plasmodium falciparum [3]; Plasmodium falciparum, 3D7): > 50 µM

O=C1C(O)=C([C@H]2CC[C@H](c3ccc(Cl)cc3)CC2)C(=O)c2ccccc21 [ATOVAQUONE]
IC50 (Plasmodium berghei; [4]): 0.0003 µM
IC50 ([1]; HepG2 cells): > 10 µM

CCCC(C(=O)OCCN(CC)CC)(c1ccccc1)c1ccccc1 [PROADIFEN HYDROCHLORIDE]
IC50 (Plasmodium berghei; [4]): 2.78 µM
IC50 ([1]; HepG2 cells): 57 µM
IC50 (Plasmodium falciparum [2]; Plasmodium falciparum, Dd2): 0.722 µM

CCCCCCCCCCOc1cc2c(O)c(C(=O)OCC)cnc2cc1OCC [DECOQUINATE]
IC50 (Plasmodium berghei; [4]): 0.0054 µM
IC50 ([1]; HepG2 cells): > 100 µM

CC[C@H]1CN2CCc3cc(OC)c(OC)cc3[C@@H]2C[C@@H]1C[C@H]1NCCc2cc(OC)c(OC)cc21 [EMETINE HYDROCHLORIDE]
IC50 (Plasmodium berghei; [4]): 0.08 µM
IC50 ([1]; HepG2 cells): 10 µM
IC50 (Plasmodium falciparum [2]; Plasmodium falciparum, Dd2): 0.018 µM

CC(=O)O[C@@H]1C[C@H]2C(C)(C)C(=O)C=C[C@]2(C)[C@H]2CC[C@@]3(C)[C@H](c4ccoc4)OC(=O)[C@H]4O[C@]43[C@@]21C [GEDUNIN]
IC50 (Plasmodium berghei; [4]): 0.76 µM
IC50 ([1]; HepG2 cells): > 100 µM

COc1c(C)c2c(c(O)c1C/C=C(\C)CCC(=O)O)C(=O)OC2 [MYCOPHENOLIC ACID]
IC50 (Plasmodium berghei; [4]): 1 µM
IC50 ([1]; HepG2 cells): > 100 µM
IC50 (Plasmodium falciparum [2]; Plasmodium falciparum, Dd2): > 5 µM

COc1cccc2c1C(=O)c1c(O)c3c(c(O)c1C2=O)C[C@@](O)(C(=O)CO)C[C@@H]3O[C@H]1C[C@H](N)[C@H](O)[C@H](C)O1 [DOXORUBICIN]
IC50 (Plasmodium berghei; [4]): 0.886 µM
IC50 ([1]; HepG2 cells): 11.1 µM
IC50 (Plasmodium falciparum [2]; Plasmodium falciparum, Dd2): 0.058 µM

CC[C@@]1([C@H]2O[C@H]([C@H]3O[C@@](O)(CO)[C@H](C)C[C@@H]3C)C[C@H]2C)CC[C@H]([C@@]2(C)CC[C@]3(C[C@H](O)[C@@H](C)[C@@H]([C@H](C)[C@H](OC)[C@@H](C)C(=O)O)O3)O2)O1 [MONENSIN SODIUM]
IC50 (Plasmodium berghei; [4]): 0.0006 µM

CCCCCC[C@H]1C(=O)O[C@H](C)[C@H](NC(=O)c2cccc(NC=O)c2O)C(=O)O[C@@H](C)[C@@H]1OC(=O)CC(C)C [ANTIMYCIN A]
IC50 (Plasmodium berghei; [4]): 0.0023 µM
IC50 ([1]; HepG2 cells): > 100 µM

Cc1cc(N)c2ccccc2[n+]1CCCCCCCCCC[n+]1c(C)cc(N)c2ccccc21 [DEQUALINIUM CHLORIDE]
IC50 (Plasmodium berghei; [4]): 1.71 µM
IC50 ([1]; HepG2 cells): > 100 µM
IC50 (Plasmodium falciparum [2]; Plasmodium falciparum, Dd2): 0.134 µM

O=C(c1ccc(F)cc1)C1CCN(CCn2c(=O)[nH]c3ccccc3c2=O)CC1 [KETANSERIN TARTRATE]
IC50 (Plasmodium berghei; [4]): 1.34 µM
IC50 ([1]; HepG2 cells): > 100 µM
IC50 (Plasmodium falciparum [2]; Plasmodium falciparum, Dd2): > 5 µM

CC[C@@H]1C=CC=CC[C@H](C)[C@@H](O)[C@@H](C)C(=O)[C@H](C)[C@@H](O)[C@H](C)C(=O)[C@H](C)[C@@H](O)[C@H](C)C=CC(=O)O[C@H]2[C@@H](C)[C@@H](CC1)O[C@@]1(CC[C@@H](C)[C@@H](C[C@H](C)O)O1)[C@@H]2C [OLIGOMYCIN C]
IC50 (Plasmodium berghei; [4]): 0.0005 µM
IC50 ([1]; HepG2 cells): 15 µM
IC50 (Plasmodium falciparum [2]; Plasmodium falciparum, Dd2): 0.111 µM
